Assays:
[1] = tested on: human peripheral blood mononuclear cells (PBMC); assay: HMGB1-induced TNF release by human PBMC-derived macrophages; assay type: cell-based; settings: differentiated human macrophages; HMGB1 6 hours; ELISA; three independent experiments in duplicate
Experimental: Human PBMC were isolated by density gradient through Ficoll-Paque^TM PLUS centrifugation (Amersham Pharmacia Biotech), and suspended in RPMI 1640 containing 10% (vol/vol) heat-inactivated human serum (BioWhittaker Inc.), penicillin 100 U/ml, and streptomycin 100 μg/ml, and incubated at 37 °C in a humidified incubator with 5% CO2 atmosphere overnight. Non-adherent cells were discarded. Adherent monocytes were washed twice with PBS and were then suspended in 12-well and 24-well tissue culture plates and incubated in the same medium but now enriched with 2.5 ng/ml macrophage colony-stimulating factor for 5–7 days.[33] […]
Concentrations of TNF and IL-6 were each determined using a commercially available enzyme-linked immunosorbent assay (ELISA) kit (R&D System Inc.) as previously described.[34] The levels of TNF or IL-6 were calculated with reference to standard curves.
Human peripheral blood mononuclear cells (PBMC) were isolated by density gradient centrifugation through Ficoll-PaqueTM PLUS, and cultured for 5-7 days in medium containing macrophage colony-stimulating factor (2.5 ng/ml). […] The content of TNF in the cell-free medium was determined by ELISA and expressed as mean ± SEM of three independent experiments performed in duplicate. *p< 0.05, **p< 0.01 vs. control (=HMGB1 alone without added melanocortin peptide).

Balb/C mice = assay: Cecal ligation and puncture (CLP) polymicrobial sepsis, survival (protocol A); assay type: in vivo
Experimental: In vivo studies were performed in accordance with National Institutes of Health guidelines and with the approval of the North Shore-Long Island Jewish Health System’s Institutional Animal Care and Use Committee (IACUC). In mice, polymicrobial sepsis was induced by surgical ligation and perforation of the cecum, a widely used technique known as CLP. Briefly, male BALB/c mice (7–8 weeks old, 20–25 g) were anesthetized with a mixture of ketamine (100 mg/kg) and xylazine (8 mg/kg) intramuscularly, and a 15 mm midline incision was made to expose the cecum. After ligation of the cecum with a 6.0 silk suture below the junction of the ileo–cecal valve, the ligated cecal stump was perforated once with a 22-gauge needle. […] Survival was monitored twice daily for 2 weeks, at which time survivors were killed (CO2 asphyxia). […] Survival was monitored twice daily after surgery. […]
Kaplan–Meier analysis was used to determine statistical significance of the differences in survival of mice. p ≦ 0.05 was considered significant. Values in the figures were expressed as mean(±)S.E.M. of two or three independent experiments, where each experimental point was derived from duplicates or triplicates. […]
Fig. 6 MECO-1 rescues mice from lethal sepsis. a Endotoxin. […] Survival was monitored daily for 2 weeks. […] Animals were monitored for survival for 14 days. […]

alpha-melanocyte-stimulating hormone [alpha-MSH]
attenuation of HMGB-1-induced TNF release [1]: significant effects in the picomolar range
survival at day 14 after CLP (Balb/C mice; 5 mg/kg (high dose) i.p. twice daily, six doses starting 24 h post-surgery, n = 10, saline 15%): around 50%
overall survival after CLP polymicrobial sepsis (Balb/C mice; three experiments pooled, untreated 23% (9 of 39), alpha-MSH 15 of 22, MECO-1 42 of 64): 68%

— paper PMC5684143, “New melanocortin-like peptide of E. coli can suppress inflammation via the mammalian melanocortin-1 receptor (MC1R): possible endocrine-like function for microbes of the gut” (NPJ Biofilms and Microbiomes, 2017)
